Measured values published in PubChem BioAssay (NCI).
“And” between values parts separate entries of the source, which are not always exact repeats. Equal values may be shown once.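 Test compounds were applied to cells in 96-well plates for 48 hours at 5 doses. At the GI50, growth is halved. TGI is the concentration that stops growth completely.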

Assays:
Experiment in all cases: NCI tumour cell line growth inhibition, 48 h
[1] = tested on: EKVX NSCLC
[2] = tested on: NCI-H23 lung
[3] = tested on: OVCAR-4 ovarian
[4] = tested on: SF-295 CNS
[5] = tested on: BT-549 breast
[6] = tested on: SK-OV-3 ovarian
[7] = tested on: MOLT-4 leukemia
[8] = tested on: K-562 leukemia
[9] = tested on: LOX IMVI melanoma
[10] = tested on: SF-268 CNS

SMILES	GI50 [1]	TGI [1]	GI50 [2]	TGI [2]	GI50 [3]	TGI [3]	GI50 [4]	TGI [4]	GI50 [5]	TGI [5]	GI50 [6]	TGI [6]	GI50 [7]	TGI [7]	GI50 [8]	TGI [8]	GI50 [9]	TGI [9]	GI50 [10]	TGI [10]
CN(CCCCCl)P(=O)(OCCS(=O)(=O)CC(NC(=O)CCC(N)C(=O)O)C(=O)NC(C(=O)O)c1ccccc1)OCC1OC(n2ccc(N)nc2=O)C(O)C1O (stereo not drawn)	67.4 µM	> 75 µM	22.6 µM	> 75 µM	47.5 µM	> 75 µM	> 58.8 µM	> 75 µM	48.7 µM	> 75 µM	57.1 µM	> 75 µM	0.851 µM	> 31.8 µM	7.36 µM	> 75 µM	45.5 µM	> 75 µM	49.8 µM	> 75 µM
CC(=O)/C(=C/c1ccccc1)C(=O)CC(C)C	17.3 µM	40.9 µM	18.4 µM	43.1 µM	17.6 µM	41.4 µM			14.9 µM	28.9 µM	31.8 µM	99 µM	3.59 µM	79.4 µM	3.77 µM	> 100 µM	1.85 µM	4.02 µM	14.3 µM	33 µM
COc1cc2c3cc1Oc1c(OC)c(OC)cc4c1C(=NCC4)Cc1ccc(cc1)Oc1cc(ccc1O)C[C@H]3N(C)CC2		> 100 µM		44 µM		40.7 µM		43.3 µM		24.9 µM		> 100 µM		66.2 µM		74.1 µM		25.1 µM		> 100 µM
O=C(CCl)NCCNc1nccc(Nc2ccc(S(=O)(=O)Nc3ccccn3)cc2)n1	3.15 µM	12.8 µM	2.04 µM	6.11 µM	3.1 µM	25.3 µM	2.39 µM	7.66 µM	2.32 µM	13.9 µM	4.67 µM	42.8 µM	1.91 µM	11.9 µM	2.57 µM	17 µM	1.75 µM	4.12 µM	2.63 µM	12.9 µM
CCN(CC)CCCC(C)Nc1ccnc2cc(Cl)ccc12 (stereo not drawn)		> 100 µM		> 100 µM	> 100 µM	> 100 µM		59.9 µM and > 60.1 µM	55.9 µM	> 100 µM	> 100 µM	> 100 µM	62.9 µM	> 100 µM and 50 µM	22.6 µM	88.2 µM and 32.4 µM	18.4 µM	48.8 µM and 45 µM		> 100 µM
CC1=CC(C)=NN=C(N)N1S(=O)(=O)c1cc(C)c(Cl)cc1SCc1ccccc1	6.08 µM	> 100 µM	14.2 µM	> 100 µM	11.5 µM	> 100 µM	34.3 µM	> 100 µM	17.8 µM	> 100 µM	77.7 µM	> 100 µM	6.18 µM	> 100 µM	9.22 µM	> 100 µM	58.4 µM	> 100 µM	35.1 µM	> 100 µM
Cc1c(O)c(N=Nc2nc3ccccc3s2)c2ccccc2c1O	13.3 µM	> 50 µM	13.9 µM	> 50 µM			24.7 µM	> 50 µM	15.5 µM	> 50 µM	30.1 µM	> 50 µM	> 50 µM	> 50 µM	14.7 µM	48.3 µM	29.7 µM	> 50 µM	18.2 µM	> 50 µM
O=C1C(=C(C(F)(F)Cl)C(F)(F)Cl)C2CCC1C2 (stereo not drawn)		> 10 µM		4.63 µM		8.31 µM		> 10 µM		4 µM		> 10 µM		> 3.53 µM		> 10 µM		2.89 µM		> 6.62 µM
CCCc1n(Cc2ccc3ccccc3c2)cc[n+]1Cc1ccc2ccccc2c1	1.71 µM	11.4 µM	0.521 µM	2.51 µM	0.398 µM	1.61 µM	1.44 µM	3.34 µM	0.772 µM	2.16 µM	1.74 µM	4.95 µM	1.46 µM	4.07 µM	0.414 µM	1.75 µM	0.926 µM	2.19 µM	1.08 µM	2.52 µM
CSc1c(C2=C(c3cn(C)c4ccccc34)C(=O)NC2=O)c2ccccc2n1C			1.39 µM	> 25 µM	1.2 µM	> 22.5 µM	0.671 µM	> 25 µM	0.747 µM	11.5 µM	0.833 µM	> 25 µM	1.43 µM	8.78 µM	0.665 µM	> 25 µM	1.54 µM	> 25 µM	1.51 µM	> 25 µM
CCCCC(CCCCCC(CCCC)NCc1ccc2c(c1)OCO2)NCc1ccc2c(c1)OCO2 (stereo not drawn)	1.37 µM	2.87 µM	1.32 µM	2.71 µM	1.46 µM	2.81 µM	1.76 µM	3.4 µM	1.48 µM	3.06 µM	1.77 µM	3.16 µM	0.262 µM	0.653 µM	0.186 µM	0.46 µM	0.22 µM	0.581 µM	0.905 µM	2.22 µM
Cc1ccc2oc(=O)cc(/C(=C3/C=CC=N3)c3ccc[nH]3)c2c1	0.435 µM	4.51 µM	0.484 µM	3.66 µM	1.58 µM	9.56 µM	0.215 µM	0.667 µM	0.346 µM	1.58 µM	0.264 µM	0.815 µM	0.378 µM	2.14 µM			0.343 µM	1.41 µM	0.526 µM	6.73 µM
COc1cc(Oc2c(C)c(Cl)c(OC)c(Cl)c2OC)c2c(c1Cl)COC2=O		> 100 µM		> 100 µM		> 100 µM		> 100 µM		> 100 µM		> 100 µM		69.1 µM		8.51 µM		> 100 µM		> 100 µM
CCCCCCCCCCCCCCCCCc1nccn1CCOCCO	4.83 µg/mL	10.3 µg/mL	4.73 µg/mL	9.73 µg/mL	4.46 µg/mL	9.62 µg/mL	5.27 µg/mL	11 µg/mL	6.1 µg/mL	11.7 µg/mL	5.67 µg/mL	10.8 µg/mL	5.5 µg/mL	12.3 µg/mL	4.87 µg/mL	12.1 µg/mL	5.11 µg/mL	10.4 µg/mL	5.16 µg/mL	10.4 µg/mL
